Tests used:
Vasopressin V2 [1] = molecular target: T1, Vasopressin V2 (Rattus norvegicus, UniProt Q00788); test: Vasopressin V2 agonist effects in normal conscious homozygous Brattleboro rats with central diabetes insipidus; type: in vivo; set-up: from tissue; host or cells: whole living homozygous Brattleboro rat; the receptor is the animal's own; conditions: Brattleboro (BB) rats, 10 mg/kg oral; for Osmolality (% Increase): change in osmolality as percent of control; for Urine Volume (% decrease): vs. control, urine collected six hours
Excerpt: Vasopressin V2 Agonist Effects of Test Compounds in Normal Conscious Homozygous Brattleboro Rats with Central Diabetes Insipidus
Male or female homozygous Brattleboro rats (Harlan Sprague Dawley, Inc., Indianapolis, Ind.) of 250-350 g body weight were supplied with standard rodent diet (Purina Rodent Lab. Chow 5001) and water ad libitum. On the day of test, rats were placed individually into metabolic cages equipped with devices to separate the feces from the urine and containers for collection of urine. Test compound or reference agent was given at an oral dose of 1 to 10 mg/kg in a volume of 10 ml/kg. The vehicle used was 20% dimethylsulfoxide (DMSO) in 2.5% preboiled corn starch. During the test, rats were provided with water ad libitum. Urine was collected for six hours after dosing of the test compound. At the end of six hours, urine volume was measured. Urinary osmolality was determined using a Fiske One-Ten Osmometer (Fiske Associates, Norwood, Mass., 02062) or an Advanced CRYOMATIC Osmometer, Model 3C2 (Advanced Instruments, Norwood, Mass.). Determinations of Na^+, K^+ and Cl^− ion were carried out using ion specific electrodes in a Beckman SYNCHRON EL-ISE Electrolyte System analyzer. This animal model was mainly used for evaluation of potency and duration of action of the active compounds.

Vasopressin V2 [2] = molecular target: T1, Vasopressin V2; test: Vasopressin V2 agonist effects in normal conscious water-loaded rats; type: in vivo; set-up: from tissue; host or cells: whole living Sprague-Dawley rat; the receptor is the animal's own (renal, by own knowledge); conditions: Sprague-Dawley (CD) rats, 10 mg/kg oral; for Osmolality (% Increase): change in osmolality as percent of control; for Urine Volume (% decrease): vs. control, urine collected four hours
Procedure, shortened: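 Sprague-Dawley rats (350-500 g, either sex) dosed orally at 10 mg/kg in 20% DMSO/2.5% corn starch, then water-loaded by gavage (30 ml/kg) 30 min later. Urine was collected for 4 h post-dose without food or water. Endpoints were volume, osmolality and Na+, K+, Cl−, with two to three rats per compound.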

T1 sequence (Q00788 whole entry): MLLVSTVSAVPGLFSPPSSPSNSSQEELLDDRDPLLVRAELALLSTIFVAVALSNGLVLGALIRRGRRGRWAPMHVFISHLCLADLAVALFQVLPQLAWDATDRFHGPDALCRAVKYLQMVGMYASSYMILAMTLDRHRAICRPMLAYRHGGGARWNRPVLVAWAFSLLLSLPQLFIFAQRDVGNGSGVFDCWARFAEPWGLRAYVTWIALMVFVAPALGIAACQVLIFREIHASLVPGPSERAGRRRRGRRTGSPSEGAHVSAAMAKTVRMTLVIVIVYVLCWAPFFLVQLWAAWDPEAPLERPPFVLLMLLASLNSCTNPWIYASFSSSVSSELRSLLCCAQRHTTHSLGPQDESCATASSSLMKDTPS

Compound | Osmolality (% Increase) (Vasopressin V2 [1]) [%] | Urine Volume (% decrease) (Vasopressin V2 [1]) [%] | melting point [°C] | Osmolality (% Increase) (Vasopressin V2 [2]) [%] | Urine Volume (% decrease) (Vasopressin V2 [2]) [%]
CC(=O)n1ccc(-c2ccc(C(=O)N3Cc4cccn4Cc4ccccc43)cc2)n1 [Example 30, 1-{3-[4-(5H,11H-Pyrrolo[2,1-c][1,4]benzodiazepine-10-carbonyl)-phenyl]-pyrazol-1-yl}-ethanone] | 334 | 81 |  |  | 
O=C(c1ccc(-c2ccn(C(=O)c3cccs3)n2)cc1)N1Cc2cccn2Cc2ccccc21 [Example 34, (5H,11-Pyrrolo[2,1-c][1,4]benzodiazepin-10-yl)-{4-[1-(thiophene-2-carbonyl)-1H-pyrazoly-3-yl]phenyl}-methanone] | 407 | 76 |  |  | 
Cc1ccccc1C(=O)n1ccc(-c2ccc(C(=O)N3Cc4cccn4Cc4ccccc43)cc2)n1 [Example 36, {4-[1-(2-Methyl-benzoyl)-1H-pyrazol-3-yl]-phenyl}-(5H,11H-pyrrolo[2,1-c][1,4]benzodiazepin-10-yl)-methanone] | 164 | 66 | 170 to 173 |  | 
O=C(c1ccc(-c2ccn(C(=O)c3ccc(Cl)cc3Cl)n2)cc1)N1Cc2cccn2Cc2ccccc21 [Example 38, {4-[1-(2,4-Dichloro-benzoyl)-1H-pyrazol-3-yl]-phenyl}-(5H,11H-pyrrolo[2,1-c][1,4]benzodiazepin-10-yl)-methanone] | 256 | 66 | 180 to 182 |  | 
Cn1ncnc1-c1ccc(C(=O)N2Cc3cccn3Cc3ccccc32)cc1 [Example 49, [4-(2-Methyl-2H-[1,2,4]triazol-3-yl)-phenyl]-(5H,11H-pyrrolo[2,1-c][1,4]-benzodiazepin-10-yl)-methanone] | 221 | 74 | 155 to 158 |  | 
Cc1ccn(-c2ccc(C(=O)N3Cc4cccn4Cc4ccccc43)c(Cl)n2)n1 [Example 100, [2-Chloro-6-(3-methylpyrazol-1-yl)-pyridin-3-yl]-(5H,11H-pyrrolo[2,1-c][1,4]benzodiazepin-10-yl)-methanone] |  |  | 171 to 172 | 248 | 24
Cc1cnn(-c2ccc(C(=O)N3Cc4cccn4Cc4ccccc43)c(Cl)n2)c1 [Example 101, [2-Chloro-6-(4-methylpyrazol-1-yl)-pyridin-3-yl](5H,11H-pyrrolo[2,1-c][1,4]benzodiazepin-10-yl)-methanone] |  |  | 155 to 156 | 376 | 76
CC(=O)c1ccc(C(=O)N2Cc3cccn3Cc3ccccc32)c(Cl)c1 [Example 121, 1-[4-(5H,11H-pyrrolo[2,1-c][1,4]benzodiazepine-10-carbonyl)-3-chlorophenyl]-ethanone] |  |  | 98 to 100 | 155 | 22

Reference: patent US6831079B1, “Vasopressin agonist formulation and process” (American Cyanamid Company, priority 1999, dated 2004)
